Results reported in US11504396B2 (NKMAX Co., Ltd., priority 2016, dated 2022).
Read-outs that look alike come from different tables or passages of the source. The star is where a group is joined. Cbz = O=C(OCc1ccccc1)*; CH2F = FC*

How the values were obtained:
[1] = tested on: MDA-MB-231 (the breast cancer cell line); conditions: FIG. 6B; pretreatment 24 hrs (30, 100 and 300 μM); E:T 0.5:1, 48 hrs
[2] = tested on: AGS (the stomach cancer cell line); conditions: FIG. 6A; pretreatment 24 hrs (30, 100 and 300 μM); E:T 0.5:1, 48 hrs
[3] = tested on: SNU-387 (the liver cancer cell line); experiment: 2 day cytotoxicity assay of kinase inhibitor pretreated NK cells against SNU-387
human NK cells = conditions: cited from earlier work; for NK cytotoxicity / NK cytokine production: direct exposure of human NK cells with pharmacological doses, in vitro (Krieg and Ullrich 2013)
[4] = tested on: SNU-245 (the biliary tract cancer cell line); experiment: 2 day cytotoxicity assay against SNU-245 cells (pretreated or formulated NK cells, or ponatinib alone)
[5] = tested on: SK-4 (stomach cancer) cells; experiment: Cytotoxicity of NK cells after TGF-β receptor inhibitor treatment (SK-4); type: cell-based; conditions: NK cells treated with LY2157299 100 nM for 24 hours, co-cultured 48 hours
Method: (§1) NK cells are treated with LY2157299 (100 nM), a compound inhibiting kinases related to TGF-β receptor signaling, for 24 hours and then co-cultured with SK-4 (stomach cancer) or HCT-15 (colon cancer) cells for 48 hours.

[6] = tested on: sGITRL-induced NK cell death; experiment: NK cell survival after sGITRL treatment (trypan blue); type: cell-based, human; conditions: then 5 ng/mL sGITRL for two days
[7] = tested on: TGF-β-induced NK cell death; experiment: NK cell survival after TGF-β treatment (trypan blue); type: cell-based, human; conditions: FIG. 1E; LY2157299 100 nM pretreatment 24 hours, then 1 ng/mL TGF-β for two days
[8] = tested on: HCT-15 (colon cancer) cells; experiment: Cytotoxicity of NK cells after TGF-β receptor inhibitor treatment (HCT-15); type: cell-based; conditions: NK cells treated with LY2157299 100 nM for 24 hours, co-cultured 48 hours
Method: as §1

[9] = tested on: PC-3 (prostate cancer) cells; experiment: Cytotoxicity of NK cells after caspase-8 inhibitor treatment (PC-3); type: cell-based; conditions: NK cells treated with Z-IETD-FMK 2 μM for 24 hours, co-cultured 48 hours
Method: (§2) NK cells are treated with Z-IETD-FMK (2 μM), an inhibitory peptide against apoptosis-related activity of Caspase-8, for 24 hours and then co-cultured with NCI-H1299 (lung cancer) or PC-3 (prostate cancer) cells for 48 hours.

[10] = tested on: Fas-L-induced NK cell death; experiment: NK cell survival after Fas-L treatment (trypan blue); type: cell-based, human; conditions: FIG. 1D; Z-IETD-FMK 2 μM pretreatment 24 hours, then 5 ng/mL Fas-L for two days
[11] = tested on: NCI-H1299 (lung cancer) cells; experiment: Cytotoxicity of NK cells after caspase-8 inhibitor treatment (NCI-H1299); type: cell-based; conditions: NK cells treated with Z-IETD-FMK 2 μM for 24 hours, co-cultured 48 hours
Method: as §2

[12] = FIG. 7B, pretreatment 24 hrs, E:T 0.5:1, 48 hrs
[13] = FIG. 7A, pretreatment 24 hrs, E:T 0.5:1, 48 hrs
[14] = resting and IL-2-activated NK cells (Krusch et al. 2009)

For `CCN(CC)CCNC(=O)c1c(C)[nH]c(/C=C2\C(=O)Nc3ccc(F)cc32)c1C` [sunitinib], the “anti-cancer cytotoxicity of kinase inhibitor pretreated NK cells against MDA-MB-231 vs untreated NK cells” value [1] was “did not show any differences”, the “anti-cancer cytotoxicity of kinase inhibitor pretreated NK cells against AGS vs untreated NK cells” value [2] was “did not show any differences” and the “anti-cancer cytotoxicity of kinase inhibitor pretreated NK cells against SNU-387 vs untreated NK cells” value [3] was “did not increase”. The “cytotoxicity of NK cells in response to tumor targets” value (human NK cells) was “concentration dependently inhibited” and the “anti-cancer cytotoxicity of kinase inhibitor pretreated NK cells against SNU-245 vs untreated NK cells” value [4] was “did not increase”.
In the case of `Cc1nc(Nc2ncc(C(=O)Nc3c(C)cccc3Cl)s2)cc(N2CCN(CCO)CC2)n1` [dasatinib], the “anti-cancer cytotoxicity of kinase inhibitor pretreated NK cells against MDA-MB-231 vs untreated NK cells” value [1] is reported as “did not show any differences”, the “anti-cancer cytotoxicity of kinase inhibitor pretreated NK cells against AGS vs untreated NK cells” value [2] is reported as “did not show any differences” and the “anti-cancer cytotoxicity of kinase inhibitor pretreated NK cells against SNU-387 vs untreated NK cells” value [3, 12] is reported as “did not increase”. For the same compound, the NK cytotoxicity (human NK cells) was “abrogated cytotoxicity” and the “anti-cancer cytotoxicity of kinase inhibitor pretreated NK cells against SNU-245 vs untreated NK cells” value [4, 13] was “slightly increased anticancer activity”.
For `Cc1ccc(NC(=O)c2ccc(CN3CCN(C)CC3)cc2)cc1Nc1nccc(-c2cccnc2)n1` [imatinib], the “anti-cancer cytotoxicity of kinase inhibitor pretreated NK cells against MDA-MB-231 vs untreated NK cells” value [1] was “did not show any differences”, the “anti-cancer cytotoxicity of kinase inhibitor pretreated NK cells against AGS vs untreated NK cells” value [2] was “did not show any differences” and the “anti-cancer cytotoxicity of kinase inhibitor pretreated NK cells against SNU-387 vs untreated NK cells” value [3, 12] was “did not increase”. The NK cytokine production (human NK cells) was “no impact”, the NK cytotoxicity (human NK cells) was “no impact” and the “anti-cancer cytotoxicity of kinase inhibitor pretreated NK cells against SNU-245 vs untreated NK cells” value [4, 13] was “did not increase”.
In the case of `Cc1cccc(-c2nn3c(c2-c2ccnc4ccc(C(N)=O)cc24)CCC3)n1` [LY2157299], the “Cytotoxicity of NK Cells to SK-4 Cells” value ([5]; E:T = 0.1:1, With IL-2) is reported as 39%, the “Cytotoxicity of NK Cells to SK-4 Cells” value ([5]; E:T = 0.1:1, Without IL-2) is reported as 27% and the “Cytotoxicity of NK Cells to SK-4 Cells” value ([5]; E:T = 05:1, With IL-2) is reported as 59%. The “Cytotoxicity of NK Cells to SK-4 Cells” value ([5]; E:T = 05:1, Without IL-2) was 35%, the “cell death induced by sGITRL (NK cell survival rate)” value ([6]; FIG. 1E, LY2157299 100 nM pretreatment 24 hours) was “suppressed cell death” and the “cell death induced by TGF-β (NK cell survival rate)” value [7] was “suppressed cell death”. For the same compound, the “Cytotoxicity of NK Cells to HCT-15 Cells” value ([8]; E:T = 0.1:1, W/ IL-2) was 86%, the “Cytotoxicity of NK Cells to HCT-15 Cells” value ([8]; E:T = 0.1:1, W/O IL-2) was 68% and the “Cytotoxicity of NK Cells to HCT-15 Cells” value ([8]; E:T = 05:1, W/ IL-2) was 98%. For the same compound, the “Cytotoxicity of NK Cells to HCT-15 Cells” value ([8]; E:T = 05:1, W/O IL-2) was 82%.
With Cbz-IETD-CH2F the “cell death induced by sGITRL (NK cell survival rate)” value ([6]; FIG. 1D, Z-IETD-FMK 2 μM pretreatment 24 hours) was “suppressed cell death”, the “Cytotoxicity of NK Cells to PC-3 Cells” value ([9]; E:T = 0.1:1, W/ IL-2) was 76% and the “Cytotoxicity of NK Cells to PC-3 Cells” value ([9]; E:T = 0.1:1, W/O IL-2) was 48%. For the same compound, the “Cytotoxicity of NK Cells to PC-3 Cells” value ([9]; E:T = 0.5:1, W/ IL-2) was 96%, the “Cytotoxicity of NK Cells to PC-3 Cells” value ([9]; E:T = 0.5:1, W/O IL-2) was 78% and the “cell death induced by Fas-L (NK cell survival rate)” value [10] was “suppressed cell death”. The “Cytotoxicity of NK Cells to NCI-H1299 Cells” value ([11]; E:T = 0.1:1, With IL-2) was 33%, the “Cytotoxicity of NK Cells to NCI-H1299 Cells” value ([11]; E:T = 0.1:1, Without IL-2) was 25% and the “Cytotoxicity of NK Cells to NCI-H1299 Cells” value ([11]; E:T = 0.5:1, With IL-2) was 58%. The “Cytotoxicity of NK Cells to NCI-H1299 Cells” value ([11]; E:T = 0.5:1, Without IL-2) was 34%.
In the case of `COc1cc2c(Nc3ccc(Br)cc3F)ncnc2cc1OCC1CCN(C)CC1` [vandetanib], the “anti-cancer cytotoxicity of kinase inhibitor pretreated NK cells against SNU-387 vs untreated NK cells” value [3, 12] is reported as “did not increase” and the “anti-cancer cytotoxicity of kinase inhibitor pretreated NK cells against SNU-245 vs untreated NK cells” value [4, 13] is reported as “did not increase”.
In the case of `Cc1cn(-c2cc(NC(=O)c3ccc(C)c(Nc4nccc(-c5cccnc5)n4)c3)cc(C(F)(F)F)c2)cn1` [nilotinib], the “anti-cancer cytotoxicity of kinase inhibitor pretreated NK cells against MDA-MB-231 vs untreated NK cells” value [1] is reported as “did not show any differences”, the “anti-cancer cytotoxicity of kinase inhibitor pretreated NK cells against AGS vs untreated NK cells” value [2] is reported as “did not show any differences” and the “anti-cancer cytotoxicity of kinase inhibitor pretreated NK cells against SNU-387 vs untreated NK cells” value [3, 12] is reported as “did not increase”. For the same compound, the NK cytokine production (human NK cells) was “negatively influenced” and the “anti-cancer cytotoxicity of kinase inhibitor pretreated NK cells against SNU-245 vs untreated NK cells” value [4, 13] was “did not increase”.
With `CNC(=O)c1cc(Oc2ccc(NC(=O)Nc3ccc(Cl)c(C(F)(F)F)c3)cc2)ccn1` [sorafenib] the “anti-cancer cytotoxicity of kinase inhibitor pretreated NK cells against MDA-MB-231 vs untreated NK cells” value [1] was “did not show any differences”, the “anti-cancer cytotoxicity of kinase inhibitor pretreated NK cells against AGS vs untreated NK cells” value [2] was “did not show any differences” and the “anti-cancer cytotoxicity of kinase inhibitor pretreated NK cells against SNU-387 vs untreated NK cells” value [3, 12] was “did not increase”. For the same compound, the “IFN-γ production of NK cells in response to tumor targets” value (human NK cells; [14]) was “concentration dependently inhibited”, the “cytotoxicity of NK cells in response to tumor targets” value (human NK cells; [14]) was “concentration dependently inhibited” and the “anti-cancer cytotoxicity of kinase inhibitor pretreated NK cells against SNU-245 vs untreated NK cells” value [4, 13] was “did not increase”.
For `COc1cc(Nc2c(C#N)cnc3cc(OCCCN4CCN(C)CC4)c(OC)cc23)c(Cl)cc1Cl` [bosutinib], the “anti-cancer cytotoxicity of kinase inhibitor pretreated NK cells against SNU-387 vs untreated NK cells” value [3, 12] was “did not increase” and the “anti-cancer cytotoxicity of kinase inhibitor pretreated NK cells against SNU-245 vs untreated NK cells” value [4, 13] was “did not increase”.
